Measured values: PMC6211832, “Screening of candidate substrates and coupling ions of transporters by thermostability shift assays” (eLife, 2018)
One block for each compound: values may come before it.

Assays:
GalP [1] = biological target: T1, GalP (Escherichia coli, UniProt P0AEP1); assay: CPM thermostability shift assay; format: binding; conditions: 50 mM compound, dodecyl-maltoside
T1 construct: full length, C-terminal His6; plasmid pGP1 in E. coli JM1100, purified in dodecyl-maltoside

[2] = biological target: T2, mitochondrial ADP/ATP carrier (AAC) (Thermothelomyces thermophilus, UniProt G2QNH0); assay: CPM thermostability shift assay; format: binding; conditions: 2.5 mM compound, pH 8.0, 100 mM NaCl, dodecyl-maltoside, tetraoleoyl cardiolipin
T2 construct: gene MYCTH_2316753; N-terminal His8 tag, TSED linker and Factor Xa site; expressed in S. cerevisiae WB.12 mitochondria, purified in dodecyl-maltoside
T2 sequence (G2QNH0 whole entry): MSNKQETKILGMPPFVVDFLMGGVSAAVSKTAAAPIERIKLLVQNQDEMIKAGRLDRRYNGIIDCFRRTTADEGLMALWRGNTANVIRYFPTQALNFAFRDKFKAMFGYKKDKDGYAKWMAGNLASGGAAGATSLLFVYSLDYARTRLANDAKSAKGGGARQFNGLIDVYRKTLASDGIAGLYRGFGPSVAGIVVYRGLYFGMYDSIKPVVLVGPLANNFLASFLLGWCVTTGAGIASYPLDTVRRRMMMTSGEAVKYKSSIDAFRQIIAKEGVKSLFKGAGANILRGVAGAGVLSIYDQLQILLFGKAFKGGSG
Source text: CPM thermostability shift assay on mitochondrial ADP/ATP carrier (AAC) | In the presence of ATP, ADP, and dADP the population was stabilized

Mhp1 = biological target: T3, Mhp1 (Microbacterium maritypicum, UniProt D6R8X8); assay: CPM thermostability shift assay; format: binding; conditions: 2 mM compound, 140 mM NaCl, pH 8.0, dodecyl-maltoside
T3 construct: gene hyuP; full length, C-terminal His6; plasmid pTTQ18, E. coli BL21(DE3), purified in dodecyl-maltoside
T3 sequence (D6R8X8 whole entry): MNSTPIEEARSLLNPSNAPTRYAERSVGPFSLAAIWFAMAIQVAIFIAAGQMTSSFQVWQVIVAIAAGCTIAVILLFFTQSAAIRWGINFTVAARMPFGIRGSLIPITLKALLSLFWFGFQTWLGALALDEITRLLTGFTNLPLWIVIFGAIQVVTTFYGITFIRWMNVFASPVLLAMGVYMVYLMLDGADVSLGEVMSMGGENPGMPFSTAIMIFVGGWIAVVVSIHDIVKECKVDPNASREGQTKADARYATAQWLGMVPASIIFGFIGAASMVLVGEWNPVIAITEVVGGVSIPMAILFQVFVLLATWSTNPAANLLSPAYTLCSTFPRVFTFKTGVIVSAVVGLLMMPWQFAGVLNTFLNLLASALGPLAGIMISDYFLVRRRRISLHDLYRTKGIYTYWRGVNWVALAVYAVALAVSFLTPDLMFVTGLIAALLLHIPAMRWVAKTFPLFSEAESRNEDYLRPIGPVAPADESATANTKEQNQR

GalP [3] = biological target: T1, GalP; assay: CPM thermostability shift assay; format: binding; conditions: 50 mM compound, dodecyl-maltoside; remark: listed apart in the source
[4] = biological target: T4, mitochondrial phosphate carrier of Tetrahymena thermophila (UniProt I7M3J0) (Tetrahymena thermophila, UniProt I7M3J0); assay: CPM thermostability shift assay; format: binding; conditions: 2.5 mM compound, pH 6.0, 100 mM NaCl, tetraoleoyl cardiolipin
T4 construct: gene TTHERM_00535740; N-terminal His8 tag, TSED linker and Factor Xa site; expressed in S. cerevisiae W303-1B mitochondria, purified in lauryl maltose neopentyl glycol
T4 sequence (I7M3J0 entry or part of it): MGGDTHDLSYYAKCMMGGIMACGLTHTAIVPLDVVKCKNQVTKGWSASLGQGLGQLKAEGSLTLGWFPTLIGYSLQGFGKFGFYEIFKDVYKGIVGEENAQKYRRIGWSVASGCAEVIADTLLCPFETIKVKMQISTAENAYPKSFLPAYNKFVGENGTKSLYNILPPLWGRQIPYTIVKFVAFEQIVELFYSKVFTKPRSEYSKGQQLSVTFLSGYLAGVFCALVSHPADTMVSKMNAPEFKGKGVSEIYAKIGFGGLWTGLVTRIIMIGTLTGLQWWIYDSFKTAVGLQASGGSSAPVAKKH

[5] = biological target: T4, mitochondrial phosphate carrier of Tetrahymena thermophila; assay: competition of […]-orthophosphate uptake in proteoliposomes; format: biochemical; conditions: 20 mM external glyoxylate, 20 μM [33P]-orthophosphate, pH 6.5, 20 mM internal compound

T1 sequence (P0AEP1 whole entry): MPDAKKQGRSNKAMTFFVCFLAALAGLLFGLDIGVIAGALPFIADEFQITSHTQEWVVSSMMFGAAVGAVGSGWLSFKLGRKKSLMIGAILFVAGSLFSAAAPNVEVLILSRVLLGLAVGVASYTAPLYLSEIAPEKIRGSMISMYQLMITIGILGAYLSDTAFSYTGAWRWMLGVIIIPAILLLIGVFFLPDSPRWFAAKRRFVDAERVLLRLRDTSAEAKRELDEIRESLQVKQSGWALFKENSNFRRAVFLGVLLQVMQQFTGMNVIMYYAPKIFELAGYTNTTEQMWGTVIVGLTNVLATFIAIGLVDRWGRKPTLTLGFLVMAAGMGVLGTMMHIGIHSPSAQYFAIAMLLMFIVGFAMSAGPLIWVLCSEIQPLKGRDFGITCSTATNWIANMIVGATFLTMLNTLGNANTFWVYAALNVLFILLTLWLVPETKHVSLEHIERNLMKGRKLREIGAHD

SMILES: OC[C@H]1OC(O)C[C@@H](O)[C@@H]1O (stereo partly drawn) [2-deoxy-D-glucose]
dTm (GalP [1]): to a lesser extent by D-talose, 2-deoxy-D-glucose, 6-deoxy-D-glucose

SMILES: C[C@H]1OC(O)[C@H](O)[C@@H](O)[C@@H]1O (stereo partly drawn) [6-deoxy-D-glucose]
dTm (GalP [1]): to a lesser extent by D-talose, 2-deoxy-D-glucose, 6-deoxy-D-glucose

dTm [2]: 6.0 ± 0.5 °C
SMILES: Nc1ncnc2c1ncn2[C@@H]1O[C@H](COP(=O)(O)OP(=O)(O)O)[C@@H](O)[C@H]1O [ADP]

dTm [2]: 7.2 ± 0.2 °C
SMILES: Nc1ncnc2c1ncn2[C@@H]1O[C@H](COP(=O)(O)OP(=O)(O)OP(=O)(O)O)[C@@H](O)[C@H]1O [ATP]

dTm (Mhp1): 11.9 ± 1.1 °C
SMILES: O=C1NC(=O)C(C=CBr)N1 (stereo not drawn) [BVH, 5-bromovinylhydantoin]

dTm (GalP [3]): 2.1 ± 0.6 °C
SMILES: OC[C@H]1OC(O)[C@H](O)[C@@H](O)[C@H]1O (stereo partly drawn) [D-galactose]

dTm (GalP [3]): 4.2 ± 0.5 °C
SMILES: OC[C@H]1OC(O)[C@H](O)[C@@H](O)[C@@H]1O (stereo partly drawn) [D-glucose]

SMILES: OC[C@H]1OC(O)[C@@H](O)[C@@H](O)[C@H]1O (stereo partly drawn) [D-talose]
dTm (GalP [1]): to a lesser extent by D-talose, 2-deoxy-D-glucose, 6-deoxy-D-glucose

dTm (Mhp1): 13.6 ± 1.2 °C
SMILES: O=C1NC(=O)[C@H](Cc2ccccc2)N1 [L-BH, 5-benzyl-L-hydantoin]

dTm (Mhp1; inhibitor): 15.6 ± 1.7 °C
SMILES: O=C1NC(=O)[C@H](Cc2ccc3ccccc3c2)N1 [L-NMH, 5-(2-naphthylmethyl)-L-hydantoin]

dTm [4]: 3.2 ± 0.5 °C
SMILES: CC(=O)OP(=O)(O)O [acetyl-phosphate]

dTm [2]: 1.8 ± 0.2 °C
SMILES: Nc1ncnc2c1ncn2[C@H]1C[C@H](O)[C@@H](COP(=O)(O)OP(=O)(O)O)O1 [dADP]

dTm [4]: 3.6 ± 0.8 °C
SMILES: O=CC(=O)O [glyoxylate]
inhibition of phosphate uptake [5]: in competition assays glyoxylate abolished uptake

dTm [4]: 2.3 ± 0.2 °C
SMILES: C=C(OP(=O)(O)O)C(=O)O [phosphoenolpyruvate]
